Read-outs that look alike come from different tables or passages of the source. Where a SMILES comes first, the peptide text is derived from it.
Legend:
mGLP-1R = biological target: T1, mGLP-1R (Mus musculus, UniProt O35659); assay: GLP-1R agonist activity, cAMP in transfected HEK293 cells; assay type: cell-based
T1 construct: expressed in transfected cells; host or cells: HEK293
T1 sequence (O35659 22-463): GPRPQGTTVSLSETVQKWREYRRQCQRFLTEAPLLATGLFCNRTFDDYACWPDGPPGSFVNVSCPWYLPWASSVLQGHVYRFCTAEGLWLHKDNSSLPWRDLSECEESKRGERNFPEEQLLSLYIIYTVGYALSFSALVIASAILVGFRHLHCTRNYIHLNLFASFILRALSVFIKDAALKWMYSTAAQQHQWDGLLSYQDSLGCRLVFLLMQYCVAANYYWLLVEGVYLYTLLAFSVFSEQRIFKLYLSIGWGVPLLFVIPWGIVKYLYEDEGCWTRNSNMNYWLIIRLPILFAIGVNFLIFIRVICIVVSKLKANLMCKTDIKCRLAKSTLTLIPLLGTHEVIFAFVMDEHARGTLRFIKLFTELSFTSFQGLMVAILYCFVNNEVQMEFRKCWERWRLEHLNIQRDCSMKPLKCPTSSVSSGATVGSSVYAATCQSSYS

mGIPR = biological target: T2, mGIPR (Mus musculus, UniProt Q0P543); assay: GIPR agonist activity, cAMP in transfected HEK293 cells; assay type: cell-based
T2 construct: expressed in transfected cells; host or cells: HEK293
T2 sequence (Q0P543 19-460): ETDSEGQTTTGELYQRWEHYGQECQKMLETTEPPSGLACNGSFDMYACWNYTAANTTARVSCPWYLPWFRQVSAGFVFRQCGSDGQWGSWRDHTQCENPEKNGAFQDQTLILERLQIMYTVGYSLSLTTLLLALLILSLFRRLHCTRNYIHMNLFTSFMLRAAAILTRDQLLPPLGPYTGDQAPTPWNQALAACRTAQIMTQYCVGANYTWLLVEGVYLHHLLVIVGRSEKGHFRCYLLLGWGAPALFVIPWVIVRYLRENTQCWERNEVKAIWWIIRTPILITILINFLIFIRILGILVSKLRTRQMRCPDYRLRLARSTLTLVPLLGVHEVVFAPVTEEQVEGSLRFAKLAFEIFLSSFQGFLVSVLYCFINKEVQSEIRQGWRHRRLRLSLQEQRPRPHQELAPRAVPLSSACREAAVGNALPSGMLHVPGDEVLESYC

[1] = HEK293 cells transfected with GLP-1R, cAMP, 20 min incubation, read-out: mGLP-1R EC50
[2] = HEK293 cells transfected with GIPR, cAMP, 20 min incubation, read-out: mGIPR EC50

SMILES	EC50 (mGLP-1R; [1]) [pM]	EC50 (mGIPR; [2]) [pM]	EC50 (mGLP-1R) [pM]	EC50 (mGIPR) [pM]
CCCCCCCCCCCCCCCC(=O)N[C@@H](CCC(=O)NCCCC[C@H](NC(=O)[C@H](CCC(N)=O)NC(=O)[C@H](C)NC(=O)[C@@H](NC(=O)[C@H](CCCCN)NC(=O)[C@H](CC(=O)O)NC(=O)[C@H](CC(C)C)NC(=O)C(C)(C)NC(=O)[C@@H](NC(=O)[C@H](CO)NC(=O)[C@H](Cc1ccc(O)cc1)NC(=O)[C@H](CC(=O)O)NC(=O)[C@H](CO)NC(=O)[C@@H](NC(=O)[C@H](Cc1ccccc1)NC(=O)[C@@H](NC(=O)CNC(=O)[C@H](CCC(=O)O)NC(=O)C1(NC(=O)[C@@H](N)Cc2ccc(O)cc2)CCC1)[C@@H](C)O)[C@@H](C)O)[C@@H](C)CC)[C@@H](C)CC)C(=O)N[C@@H](C)C(=O)N[C@@H](Cc1ccccc1)C(=O)N[C@H](C(=O)N[C@@H](CCC(N)=O)C(=O)N[C@@H](Cc1c[nH]c2ccccc12)C(=O)N[C@@H](CC(C)C)C(=O)N[C@H](C(=O)N[C@@H](C)C(=O)NCC(=O)NCC(=O)N1CCC[C@H]1C(=O)N[C@@H](CO)C(=O)N[C@@H](CO)C(=O)NCC(=O)N[C@@H](C)C(=O)N1CCC[C@H]1C(=O)N1CCC[C@H]1C(=O)N1CCC[C@H]1C(=O)N[C@@H](CO)C(N)=O)[C@@H](C)CC)C(C)C)C(=O)O [ID NO: 18]	9.02	8.33		
CCCCCCCCCCCCCCCC(=O)N[C@@H](CCC(=O)NCCCC[C@H](NC(=O)[C@H](CCC(N)=O)NC(=O)[C@H](C)NC(=O)[C@@H](NC(=O)[C@H](CCCCN)NC(=O)[C@H](CC(=O)O)NC(=O)[C@H](CC(C)C)NC(=O)[C@H](C)NC(=O)[C@@H](NC(=O)[C@H](CO)NC(=O)[C@H](Cc1ccc(O)cc1)NC(=O)[C@H](CC(=O)O)NC(=O)[C@H](CO)NC(=O)[C@@H](NC(=O)[C@H](Cc1ccccc1)NC(=O)[C@@H](NC(=O)CNC(=O)[C@H](CCC(=O)O)NC(=O)C(C)(C)NC(=O)[C@@H](N)Cc1ccc(O)cc1)[C@@H](C)O)[C@@H](C)O)[C@@H](C)CC)[C@@H](C)CC)C(=O)N[C@@H](C)C(=O)N[C@@H](Cc1ccccc1)C(=O)N[C@H](C(=O)N[C@@H](CCC(N)=O)C(=O)N[C@@H](Cc1c[nH]c2ccccc12)C(=O)N[C@@H](CC(C)C)C(=O)N[C@H](C(=O)N[C@@H](C)C(=O)NCC(=O)NCC(=O)N1CCC[C@H]1C(=O)N[C@@H](CO)C(=O)N[C@@H](CO)C(=O)NCC(=O)N[C@@H](C)C(=O)N1CCC[C@H]1C(=O)N1CCC[C@H]1C(=O)N1CCC[C@H]1C(=O)N[C@@H](CO)C(N)=O)[C@@H](C)CC)C(C)C)C(=O)O [ID NO: 17] (HELM PEPTIDE1{Y.[Aib].E.G.T.F.T.S.D.Y.S.I.A.L.D.K.I.A.Q.K.A.F.V.Q.W.L.I.A.G.G.P.S.S.G.A.P.P.P.S.[am]}|PEPTIDE2{[CCCCCCCCCCCCCCCC(=O)[*:2]].[gGlu]}$PEPTIDE1,PEPTIDE2,20:R3-2:R2$$$V2.0)	45.4	9.72		
CC[C@H](C)[C@H](NC(=O)[C@H](CC(C)C)NC(=O)[C@H](Cc1c[nH]c2ccccc12)NC(=O)[C@H](CCC(N)=O)NC(=O)[C@@H](NC(=O)[C@H](Cc1ccccc1)NC(=O)[C@H](C)NC(=O)[C@H](CCCCNC(=O)COCCOCCNC(=O)COCCOCCNC(=O)CC[C@H](NC(=O)CCCCCCCCCCCCCCCCC(=O)O)C(=O)O)NC(=O)[C@H](CCC(N)=O)NC(=O)[C@H](C)NC(=O)[C@@H](NC(=O)[C@H](CCCCN)NC(=O)[C@H](CC(=O)O)NC(=O)[C@H](CC(C)C)NC(=O)C1(NC(=O)[C@@H](NC(=O)[C@H](CO)NC(=O)[C@H](Cc2ccc(O)cc2)NC(=O)[C@H](CC(=O)O)NC(=O)[C@H](CO)NC(=O)[C@@H](NC(=O)[C@H](Cc2ccccc2)NC(=O)[C@@H](NC(=O)CNC(=O)[C@H](CCC(=O)O)NC(=O)C2(NC(=O)[C@@H](N)Cc3ccc(O)cc3)CCCC2)[C@@H](C)O)[C@@H](C)O)[C@@H](C)CC)CCCC1)[C@@H](C)CC)C(C)C)C(=O)N[C@@H](C)C(=O)NCC(=O)NCC(=O)N1CCC[C@H]1C(=O)N[C@@H](CO)C(=O)N[C@@H](CO)C(=O)NCC(=O)N[C@@H](C)C(=O)N1CCC[C@H]1C(=O)N1CCC[C@H]1C(=O)N1CCC[C@H]1C(=O)N[C@@H](CO)C(N)=O [ID NO: 3]			3.96	1.49
CC[C@H](C)[C@H](NC(=O)[C@H](CC(C)C)NC(=O)[C@H](Cc1c[nH]c2ccccc12)NC(=O)[C@H](CCC(N)=O)NC(=O)[C@@H](NC(=O)[C@H](Cc1ccccc1)NC(=O)[C@H](C)NC(=O)[C@H](CCCCNC(=O)COCCOCCNC(=O)COCCOCCNC(=O)CC[C@H](NC(=O)CCCCCCCCCCCCCCCCC(=O)O)C(=O)O)NC(=O)[C@H](CCC(N)=O)NC(=O)[C@H](C)NC(=O)[C@@H](NC(=O)[C@H](CCCCN)NC(=O)[C@H](CC(=O)O)NC(=O)[C@H](CC(C)C)NC(=O)C(C)(C)NC(=O)[C@@H](NC(=O)[C@H](CO)NC(=O)[C@H](Cc1ccc(O)cc1)NC(=O)[C@H](CC(=O)O)NC(=O)[C@H](CO)NC(=O)[C@@H](NC(=O)[C@H](Cc1ccccc1)NC(=O)[C@@H](NC(=O)CNC(=O)[C@H](CCC(=O)O)NC(=O)C1(NC(=O)[C@@H](N)Cc2ccc(O)cc2)CCCC1)[C@@H](C)O)[C@@H](C)O)[C@@H](C)CC)[C@@H](C)CC)C(C)C)C(=O)N[C@@H](C)C(=O)NCC(=O)NCC(=O)N1CCC[C@H]1C(=O)N[C@@H](CO)C(=O)N[C@@H](CO)C(=O)NCC(=O)N[C@@H](C)C(=O)N1CCC[C@H]1C(=O)N1CCC[C@H]1C(=O)N1CCC[C@H]1C(=O)N[C@@H](CO)C(N)=O [ID NO: 9]			9.41	6.98
CC[C@H](C)[C@H](NC(=O)[C@H](CC(C)C)NC(=O)[C@H](Cc1c[nH]c2ccccc12)NC(=O)[C@H](CCC(N)=O)NC(=O)[C@@H](NC(=O)[C@H](Cc1ccccc1)NC(=O)[C@H](C)NC(=O)[C@H](CCCCNC(=O)COCCOCCNC(=O)COCCOCCNC(=O)CC[C@H](NC(=O)CCCCCCCCCCCCCCCCC(=O)O)C(=O)O)NC(=O)[C@H](CCC(N)=O)NC(=O)[C@H](C)NC(=O)[C@@H](NC(=O)[C@H](CCCCN)NC(=O)[C@H](CC(=O)O)NC(=O)[C@H](CC(C)C)NC(=O)C(C)(C)NC(=O)[C@@H](NC(=O)[C@H](CO)NC(=O)[C@H](Cc1ccc(O)cc1)NC(=O)[C@H](CC(=O)O)NC(=O)[C@H](CO)NC(=O)[C@@H](NC(=O)[C@H](Cc1ccccc1)NC(=O)[C@@H](NC(=O)CNC(=O)[C@H](CCC(=O)O)NC(=O)C1(NC(=O)[C@@H](N)Cc2ccc(O)cc2)CCC1)[C@@H](C)O)[C@@H](C)O)[C@@H](C)CC)[C@@H](C)CC)C(C)C)C(=O)N[C@@H](C)C(=O)NCC(=O)NCC(=O)N1CCC[C@H]1C(=O)N[C@@H](CO)C(=O)N[C@@H](CO)C(=O)NCC(=O)N[C@@H](C)C(=O)N1CCC[C@H]1C(=O)N1CCC[C@H]1C(=O)N1CCC[C@H]1C(=O)N[C@@H](CO)C(N)=O [ID NO: 7]			5.49	7.66
CCCCCCCCCCCCCCCC(=O)N[C@@H](CCC(=O)NCCCC[C@H](NC(=O)[C@H](CCC(N)=O)NC(=O)[C@H](C)NC(=O)[C@@H](NC(=O)[C@H](CCCCN)NC(=O)[C@H](CC(=O)O)NC(=O)[C@H](CC(C)C)NC(=O)C(C)(C)NC(=O)[C@@H](NC(=O)[C@H](CO)NC(=O)[C@H](Cc1ccc(O)cc1)NC(=O)[C@H](CC(=O)O)NC(=O)[C@H](CO)NC(=O)[C@@H](NC(=O)[C@H](Cc1ccccc1)NC(=O)[C@@H](NC(=O)CNC(=O)[C@H](CCC(=O)O)NC(=O)C(C)(C)NC(=O)[C@@H](N)Cc1ccc(O)cc1)[C@@H](C)O)[C@@H](C)O)[C@@H](C)CC)[C@@H](C)CC)C(=O)N[C@@H](C)C(=O)N[C@@H](Cc1ccccc1)C(=O)N[C@H](C(=O)N[C@@H](CCC(N)=O)C(=O)N[C@@H](Cc1c[nH]c2ccccc12)C(=O)N[C@@H](CC(C)C)C(=O)N[C@H](C(=O)N[C@@H](C)C(=O)NCC(=O)NCC(=O)N1CCC[C@H]1C(=O)N[C@@H](CO)C(=O)N[C@@H](CO)C(=O)NCC(=O)N[C@@H](C)C(=O)N1CCC[C@H]1C(=O)N1CCC[C@H]1C(=O)N1CCC[C@H]1C(=O)N[C@@H](CO)C(N)=O)[C@@H](C)CC)C(C)C)C(=O)O [ID NO: 11]	24.3	6.32		

Reference: patent publication US20220251163A1 (Sinopep-Allsino Biopharmaceutical Co., Ltd., priority 2019, published 2022)
